Publication PMC7930822, “Phase I Trial to Evaluate the Tolerance, Pharmacokinetics and Efficacy of the Broad-Spectrum ErbB Family Inhibitor Larotinib Mesylate in Patients With Advanced Solid Tumors” (Frontiers in Pharmacology, 2021)
Structures can show the parent of a compound that is named as a salt. Where two headings read alike, the source gives them in different places.

Legend:
[1] = system: EGFR with the L858R mutation; design: method as in data not published; settings: ref data not published; cited from earlier work
CYP3A4 = system: CYP3A4; design: method as in data not published; settings: in vitro studies; ref data not published; cited from earlier work
[2] = target: receptor-interacting serine/threonine-protein kinase 2 (RIPK2); design: method as in data not published; settings: ref data not published; cited from earlier work
Sprague–Dawley rats = system: Sprague–Dawley rats; design: method as in data not published; settings: ref data not published, cited from earlier work
[3] = system: patients with advanced solid tumors; experiment: tumor evaluation by RECIST version 1.1; assay type: in vivo, human; settings: for Disease control, n (%): CR, PR and SD; for Objective response, n (%): complete plus partial response
Procedure: Tumor evaluation was performed at screening, the end of cycle 1, and every two cycles of subsequent treatment according to RECIST version 1.1. The disease control rate (DCR) (including CR, PR and SD), objective remission rate (ORR) (including CR and PR), and progression-free survival (PFS) were also evaluated.
Blood samples for EGFR mutation site analyses were collected in screening, cycle 1 day 29, cycle 3 days 29 and every 8 weeks for the subsequent follow-up. Second-generation sequencing method was used to detect the amplification and mutation of the related tumor genes.

[4] = target: Bruton’s tyrosine kinase (BTK); design: method as in data not published; settings: ref data not published; cited from earlier work
HER2 = system: HER2; design: method as in data not published; settings: ref data not published; cited from earlier work
wild-type EGFR = system: wild-type EGFR; design: method as in data not published; settings: ref data not published, cited from earlier work
[5] = urine and fecal excretion recovery, cycle 0; assay type: in vivo; settings: human, oral
Procedure: Blood samples (4 ml) for pharmacokinetic analyses were collected in tubes containing K2EDTA anticoagulant. Blood samples were centrifuged at 3,000 rpm for 10 min at 4°C and stored at –80°C until liquid chromatography-mass spectrophotometry (LC-MS/MS) analysis. Urine and fecal samples were collected only when patients were given the150-mg and 220-mg dose levels at sampling time intervals of 0–4, 4–8, 8–12, 12–24, 24–48, 48–72, 72–96 and 96–120 h in cycle 0.
Linear mixed effects model was used to explore the dose exposure relationships. Dose proportionality was concluded if the 95% confidence interval (CI) of the linear regression slope was completely contained within the decision interval (1 + ln (0.8)/ln (8)∼1 + ln (1.25)/ln (8)). For urine and fecal data, the accumulative excretion rates of larotinib and M5 were calculated.
Bioanalysis was performed at Frontage Company (Shanghai, China). Validated high-performance LC-MS/MS method was used to quantify the concentrations of larotinib and M5 in plasma, urine and feces samples. Protein precipitation was employed for plasma, urine and feces processing. Plasma larotinib and M5 concentrations were determined using appropriate calibration curves obtained from standards in the range of 0.5–1,000 ng/ml. The interassay precision of the analysis method were 4.2–5.4% for larotinib and 3.9–4.3% for M5. The interassay accuracy of the analysis method were 100.4–103.4% for larotinib and 102.2–102.9% for M5, respectively.

P-glycoprotein = settings: cited from earlier work
[6] = target: interleukin-1 receptor-associated kinase 1 (IRAK1); design: method as in data not published; settings: ref data not published; cited from earlier work
[7] = target: B-lymphoid tyrosine kinase (BLK); design: method as in data not published; settings: ref data not published; cited from earlier work

For `COc1cc2ncnc(Nc3ccc(F)c(Cl)c3)c2cc1OCCCN1C[C@@H]2OCCO[C@@H]2C1` [larotinib mesylate], the IC50 [1] is given as 0.563 nM, the “fraction metabolized by CYP3A4” value (CYP3A4) is given as “around 85%” and the IC50 [2] is given as 26.6 nM. For the same molecule, the “no observed adverse effect level (NOAEL)” value (Sprague–Dawley rats; daily administration) was 10 mg/kg, the “maximal tolerable dose (MTD)” value (Sprague–Dawley rats) was 20 mg/kg and the “Complete response, n (%)” value ([3]; 50 mg (n = 3)) was 0 (0). For the same molecule, the “Partial response, n (%)” value ([3]; 50 mg (n = 3)) was 0 (0), the “Progressive disease, n (%)” value ([3]; 50 mg (n = 3)) was 1 (33.3) and the “Stable disease, n (%)” value ([3]; 50 mg (n = 3)) was 2 (66.7). For the same molecule, the “Disease control, n (%)” value ([3]; 50 mg (n = 3)) was 2 (66.7), the “Objective response, n (%)” value ([3]; 50 mg (n = 3)) was 0 (0) and the “Complete response, n (%)” value ([3]; 100 mg (n = 3)) was 0 (0). The “Partial response, n (%)” value ([3]; 100 mg (n = 3)) was 0 (0), the “Progressive disease, n (%)” value ([3]; 100 mg (n = 3)) was 1 (33.3) and the “Stable disease, n (%)” value ([3]; 100 mg (n = 3)) was 2 (66.7). For the same molecule, the “Disease control, n (%)” value ([3]; 100 mg (n = 3)) was 2 (66.7), the “Objective response, n (%)” value ([3]; 100 mg (n = 3)) was 0 (0) and the “Complete response, n (%)” value ([3]; 150 mg (n = 3)) was 0 (0). For the same molecule, the “Partial response, n (%)” value ([3]; 150 mg (n = 3)) was 0 (0), the “Progressive disease, n (%)” value ([3]; 150 mg (n = 3)) was 1 (33.3) and the “Stable disease, n (%)” value ([3]; 150 mg (n = 3)) was 2 (66.7). The “Disease control, n (%)” value ([3]; 150 mg (n = 3)) was 2 (66.7), the “Objective response, n (%)” value ([3]; 150 mg (n = 3)) was 0 (0) and the “Complete response, n (%)” value ([3]; 220 mg (n = 3)) was 0 (0). For the same molecule, the “Partial response, n (%)” value ([3]; 220 mg (n = 3)) was 1 (33.3), the “Progressive disease, n (%)” value ([3]; 220 mg (n = 3)) was 0 (0) and the “Stable disease, n (%)” value ([3]; 220 mg (n = 3)) was 2 (66.7). For the same molecule, the “Disease control, n (%)” value ([3]; 220 mg (n = 3)) was 3 (100), the “Objective response, n (%)” value ([3]; 220 mg (n = 3)) was 1 (33.3) and the “Complete response, n (%)” value ([3]; 300 mg (n = 6)) was 0 (0). For the same molecule, the “Partial response, n (%)” value ([3]; 300 mg (n = 6)) was 0 (0), the “Progressive disease, n (%)” value ([3]; 300 mg (n = 6)) was 4 (66.7) and the “Stable disease, n (%)” value ([3]; 300 mg (n = 6)) was 2 (33.3). The “Disease control, n (%)” value ([3]; 300 mg (n = 6)) was 2 (33.3), the “Objective response, n (%)” value ([3]; 300 mg (n = 6)) was 0 (0) and the “Complete response, n (%)” value ([3]; 350 mg (n = 3)) was 0 (0). The “Partial response, n (%)” value ([3]; 350 mg (n = 3)) was 1 (33.3), the “Progressive disease, n (%)” value ([3]; 350 mg (n = 3)) was 0 (0) and the “Stable disease, n (%)” value ([3]; 350 mg (n = 3)) was 2 (66.7). For the same molecule, the “Disease control, n (%)” value ([3]; 350 mg (n = 3)) was 3 (100), the “Objective response, n (%)” value ([3]; 350 mg (n = 3)) was 1 (33.3) and the “Complete response, n (%)” value ([3]; 400 mg (n = 3)) was 0 (0). For the same molecule, the “Partial response, n (%)” value ([3]; 400 mg (n = 3)) was 0 (0), the “Progressive disease, n (%)” value ([3]; 400 mg (n = 3)) was 0 (0) and the “Stable disease, n (%)” value ([3]; 400 mg (n = 3)) was 3 (100). The “Disease control, n (%)” value ([3]; 400 mg (n = 3)) was 3 (100), the “Objective response, n (%)” value ([3]; 400 mg (n = 3)) was 0 (0) and the “duration of maintained PR” value ([3]; NSCLC patient, 350-mg group, no EGFR-sensitive mutations) was 19 cycles. The “Complete response, n (%)” value ([3]; Total (n = 24)) was 0 (0), the “Partial response, n (%)” value ([3]; Total (n = 24)) was 2 (8.3) and the “Progressive disease, n (%)” value ([3]; Total (n = 24)) was 7 (29.2). The “Stable disease, n (%)” value ([3]; Total (n = 24)) was 15 (62.5), the “Disease control, n (%)” value ([3]; Total (n = 24)) was 17 (70.8) and the “Objective response, n (%)” value ([3]; Total (n = 24)) was 2 (8.3). The “cases of PR among five patients with EGFR mutations at baseline” value ([3]; after cycle one) was 1, the “cases of SD among five patients with EGFR mutations at baseline” value ([3]; after cycle one) was 4 and the “stable disease as best overall response, patients” value ([3]; all dose levels) was 15. The “overall disease control rate (DCR)” value ([3]; all dose levels, 24 evaluable) was 70.8%, the IC50 [4] was 196 nM and the IC50 (HER2) was 253 nM. For the same molecule, the IC50 (wild-type EGFR; EGFR as the main target) was 0.6 nM, the IC50 (wild-type EGFR; wild-type EGFR) was 0.611 nM and the dose excreted ([5]; feces, 150-mg group, read-out: 0–120 h excretion recovery percentage in feces) was 6.01%. The dose excreted ([5]; feces, 220-mg group, read-out: 0–120 h excretion recovery percentage in feces) was 7.89%, the dose excreted ([5]; 150-mg group, urine plus feces, read-out: 0–120 h excretion recovery percentage, total) was 7.41% and the dose excreted ([5]; 220-mg group, urine plus feces, read-out: 0–120 h excretion recovery percentage, total) was 9.25%. For the same molecule, the dose excreted ([5]; urine, 150-mg group, read-out: 0–120 h excretion recovery percentage in urine) was 1.4%, the dose excreted ([5]; urine, 220-mg group, read-out: 0–120 h excretion recovery percentage in urine) was 1.36% and the P-glycoprotein substrate (P-glycoprotein) was “substrate of P-glycoprotein”. The IC50 [6] was 167 nM and the IC50 [7] was 102 nM.
